Assay results published in PubChem BioAssay (NCI).
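Tested at 5 concentrations; 48 h exposure; 96-well plates; endpoints linearly interpolated, else capped at highest concentration. The concentration for 50% growth inhibition is given as GI50. TGI: concentration producing complete growth inhibition.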

Columns and labels:
Test in all cases: inhibition of tumour cell growth, NCI panel, 48 h
HCT-116 colon = tested on: HCT-116 colon
SNB-75 CNS = tested on: SNB-75 CNS
A549 NSCLC = tested on: A549 NSCLC
K-562 leukemia = tested on: K-562 leukemia
TK-10 renal = tested on: TK-10 renal
HOP-62 NSCLC = tested on: HOP-62 NSCLC
NCI-H460 lung = tested on: NCI-H460 lung
SF-539 CNS = tested on: SF-539 CNS
SF-295 CNS = tested on: SF-295 CNS
OVCAR-4 ovarian = tested on: OVCAR-4 ovarian

Structure (SMILES)	GI50 (HCT-116 colon)	TGI (HCT-116 colon)	GI50 (SNB-75 CNS)	TGI (SNB-75 CNS)	GI50 (A549 NSCLC)	TGI (A549 NSCLC)	GI50 (K-562 leukemia)	TGI (K-562 leukemia)	GI50 (TK-10 renal)	TGI (TK-10 renal)	GI50 (HOP-62 NSCLC)	TGI (HOP-62 NSCLC)	GI50 (NCI-H460 lung)	TGI (NCI-H460 lung)	GI50 (SF-539 CNS)	TGI (SF-539 CNS)	TGI (SF-295 CNS)	TGI (OVCAR-4 ovarian)	GI50 (SF-295 CNS)	GI50 (OVCAR-4 ovarian)
COc1cccc(/C=C/C(=O)c2ccc(SC)cc2)c1OC	4.35 µM	15.4 µM	14.6 µM	30.7 µM	12.1 µM	25.5 µM	4.97 µM	64.2 µM	22.5 µM	49.5 µM	19.3 µM	34.2 µM	17.9 µM	36.2 µM	20 µM	39.6 µM	–	–	–	–
O=c1c2ccc(S(=O)(=O)c3ccc4c(=O)n5c6ccccc6nc5c5cccc3c45)c3cccc(c32)c2nc3ccccc3n12	–	> 100 µM	–	–	–	> 100 µM	–	–	–	50.3 µM	–	> 100 µM	–	> 100 µM	–	> 100 µM	53.2 µM	–	–	–
BrC(Br)=C1C(=C(Br)Br)C(Br)C1Br (centres undefined)	–	1.1 µM	–	5.62 µM	–	3 µM	–	1.19 µM	–	1.93 µM	–	2.88 µM	–	1.35 µM	–	–	2.32 µM	6.18 µM	–	–
COc1cc(Oc2c(C)c(Cl)c(OC)c(Cl)c2OC)c2c(c1Cl)COC2=O	–	> 100 µM	–	> 100 µM	–	> 100 µM	–	8.51 µM	–	> 100 µM	–	–	–	> 100 µM	–	> 100 µM	> 100 µM	> 100 µM	–	–
CC(=O)Nc1cc2cc(N)ccc2oc1=O	–	> 100 µM	–	–	–	> 100 µM	–	> 100 µM	–	> 100 µM	–	> 100 µM	–	> 100 µM	–	> 100 µM	> 100 µM	> 100 µM	–	–
COC(=O)c1ccc2c(c1)C(=O)c1c-2n(CCCCl)c(=O)c2cc([N+](=O)[O-])ccc12	42.1 µM	> 100 µM	61.7 µM	> 100 µM	–	–	59 µM	> 100 µM	> 100 µM	> 100 µM	43.3 µM	> 100 µM	23.1 µM	> 100 µM	83.6 µM	> 100 µM	> 100 µM	> 100 µM	52 µM	> 100 µM
CSC(=NC#N)S/C=C/C(=O)c1ccccc1	17.9 µM	34.1 µM	–	–	90.6 µM	> 100 µM	32.7 µM	> 100 µM	34.5 µM	> 100 µM	36 µM	> 100 µM	> 100 µM	> 100 µM	22.6 µM	49.4 µM	> 100 µM	> 100 µM	30.5 µM	> 100 µM
CC(C)C12Cc3c(ccc4ccccc34)OC1(C)Oc1ccc3ccccc3c1C2 (centres undefined)	–	> 100 µM	–	> 100 µM	–	> 100 µM	–	> 100 µM	–	> 100 µM	–	–	–	> 100 µM	–	> 100 µM	> 100 µM	> 100 µM	–	–
N/N=C1\C(=O)N(Cc2ccccc2)C(=O)C1C(=O)NCc1ccccc1 (centres undefined)	–	> 100 µM	–	–	–	> 100 µM	–	> 100 µM	–	> 100 µM	–	> 100 µM	–	> 100 µM	–	> 100 µM	> 100 µM	> 100 µM	–	–
